Measured values from PubChem BioAssay AID328 (DTP/NCI, 2004).
“And” between values parts separate entries of the source, which are not always exact repeats. Identical values can stand only once. Inconclusive results and toxic doses are left out.

Tested on: BDF1 mice, P388 leukemia ip, median survival T/C
Assay: NCI In Vivo Anticancer Drug Screen. Data for tumor model P388 Leukemia (intraperitoneal) in B6D2F1 (BDF1) mice
Settings: endpoint: median survival time, higher = longer survival
Method in brief: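 T/C = treated-group survival ÷ vehicle-control survival; tumour transplanted into mice before dosing.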

Compound: COC(C(=O)C(O)C(C)O)C1Cc2cc3cc(OC4CC(OC(C)=O)C(OC5CC(O)C(OC)C(C)O5)C(C)O4)cc(O)c3c(O)c2C(=O)C1OC1CC(OC2CC(OC3CC(C)(O)C(OC(=O)C(C)C)C(C)O3)C(O)C(C)O2)C(O)C(C)O1 (stereo unspecified)
- T/C (dose: 0.05 mg/kg/injection, schedule: Q01DX010 (ip), vehicle: saline): 113 % of control
- T/C (dose: 0.1 mg/kg/injection, schedule: Q01DX010 (ip), vehicle: saline): 90 % of control
- T/C (dose: 0.2 mg/kg/injection, schedule: Q01DX010 (ip), vehicle: saline): 154 % of control
- T/C (dose: 0.25 mg/kg/injection, schedule: Q01DX009 (ip), vehicle: other): 150 % of control
- T/C (dose: 0.25 mg/kg/injection, schedule: Q01DX009 (ip), vehicle: saline): 111 % of control
- T/C (dose: 0.25 mg/kg/injection, schedule: Q01DX010 (ip), vehicle: saline): 154 % of control and 172 % of control
- T/C (dose: 0.36 mg/kg/injection, schedule: Q01DX005 (ip), vehicle: carboxymethylcellulose (CMC)): 155 % of control
- T/C (dose: 0.37 mg/kg/injection, schedule: Q01DX009 (ip), vehicle: carboxymethylcellulose (CMC)): 155 % of control
- T/C (dose: 0.37 mg/kg/injection, schedule: Q01DX009 (sc), vehicle: carboxymethylcellulose (CMC)): 100 % of control
- T/C (dose: 0.38 mg/kg/injection, schedule: Q01DX010 (ip), vehicle: saline): 177 % of control
- T/C (dose: 0.4 mg/kg/injection, schedule: Q01DX010 (ip), vehicle: saline): 157 % of control and 172 % of control
- T/C (dose: 0.5 mg/kg/injection, schedule: Q01DX001 (ip), vehicle: other): 104 % of control
- T/C (dose: 0.5 mg/kg/injection, schedule: Q01DX009 (ip), vehicle: other): 162 % of control
- T/C (dose: 0.5 mg/kg/injection, schedule: Q01DX009 (ip), vehicle: saline): 94 % of control and 100 % of control
- T/C (dose: 0.5 mg/kg/injection, schedule: Q01DX010 (ip), vehicle: saline): 190 % of control and 213 % of control
- T/C (dose: 0.75 mg/kg/injection, schedule: Q01DX005 (ip), vehicle: carboxymethylcellulose (CMC)): 165 % of control
- T/C (dose: 0.75 mg/kg/injection, schedule: Q01DX009 (ip), vehicle: carboxymethylcellulose (CMC)): 190 % of control
- T/C (dose: 0.75 mg/kg/injection, schedule: Q01DX009 (sc), vehicle: carboxymethylcellulose (CMC)): 100 % of control
- T/C (dose: 0.75 mg/kg/injection, schedule: Q01DX010 (ip), vehicle: saline): 218 % of control
- T/C (dose: 1.0 mg/kg/injection, schedule: Q01DX001 (ip), vehicle: other): 108 % of control
- T/C (dose: 1.0 mg/kg/injection, schedule: Q01DX001 (sc), vehicle: carboxymethylcellulose (CMC)): 100 % of control
- T/C (dose: 1.0 mg/kg/injection, schedule: Q01DX009 (ip), vehicle: other): 179 % of control
- T/C (dose: 1.0 mg/kg/injection, schedule: Q01DX009 (ip), vehicle: saline): 111 % of control and 100 % of control
- T/C (dose: 1.0 mg/kg/injection, schedule: Q01DX010 (ip), vehicle: saline): 240 % of control and 227 % of control and 195 % of control
- T/C (dose: 1.0 mg/kg/injection, schedule: Q## X003 (ip), vehicle: carboxymethylcellulose (CMC)): 165 % of control
- T/C (dose: 1.0 mg/kg/injection, schedule: Q## X008 (ip), vehicle: carboxymethylcellulose (CMC)): 155 % of control
- T/C (dose: 1.0 mg/kg/injection, schedule: Q## X024 (ip), vehicle: carboxymethylcellulose (CMC)): 110 % of control
- T/C (dose: 1.5 mg/kg/injection, schedule: Q01DX005 (ip), vehicle: carboxymethylcellulose (CMC)): 215 % of control
- T/C (dose: 1.5 mg/kg/injection, schedule: Q01DX009 (ip), vehicle: carboxymethylcellulose (CMC)): 235 % of control
- T/C (dose: 1.5 mg/kg/injection, schedule: Q01DX009 (oral), vehicle: carboxymethylcellulose (CMC)): 100 % of control
- T/C (dose: 1.5 mg/kg/injection, schedule: Q01DX009 (sc), vehicle: carboxymethylcellulose (CMC)): 104 % of control
- T/C (dose: 1.5 mg/kg/injection, schedule: Q01DX010 (ip), vehicle: saline): 195 % of control and 218 % of control
- T/C (dose: 1.6 mg/kg/injection, schedule: Q01DX010 (ip), vehicle: saline): 161 % of control
- T/C (dose: 2.0 mg/kg/injection, schedule: Q01DX001 (ip), vehicle: other): 116 % of control
- T/C (dose: 2.0 mg/kg/injection, schedule: Q01DX001 (ip), vehicle: saline): 116 % of control
- T/C (dose: 2.0 mg/kg/injection, schedule: Q01DX001 (sc), vehicle: carboxymethylcellulose (CMC)): 100 % of control
- T/C (dose: 2.0 mg/kg/injection, schedule: Q01DX009 (ip), vehicle: saline): 111 % of control
- T/C (dose: 2.0 mg/kg/injection, schedule: Q01DX010 (ip), vehicle: saline): 227 % of control
- T/C (dose: 2.0 mg/kg/injection, schedule: Q## X003 (ip), vehicle: carboxymethylcellulose (CMC)): 150 % of control
- T/C (dose: 2.0 mg/kg/injection, schedule: Q## X024 (ip), vehicle: carboxymethylcellulose (CMC)): 90 % of control
- T/C (dose: 3.0 mg/kg/injection, schedule: Q01DX005 (ip), vehicle: carboxymethylcellulose (CMC)): 260 % of control
- T/C (dose: 3.0 mg/kg/injection, schedule: Q01DX009 (ip), vehicle: carboxymethylcellulose (CMC)): 95 % of control
- T/C (dose: 3.0 mg/kg/injection, schedule: Q01DX009 (oral), vehicle: carboxymethylcellulose (CMC)): 90 % of control
- T/C (dose: 3.0 mg/kg/injection, schedule: Q01DX009 (sc), vehicle: carboxymethylcellulose (CMC)): 100 % of control
- T/C (dose: 3.2 mg/kg/injection, schedule: Q01DX010 (ip), vehicle: saline): 114 % of control
- T/C (dose: 4.0 mg/kg/injection, schedule: Q01DX001 (ip), vehicle: carboxymethylcellulose (CMC)): 120 % of control
- T/C (dose: 4.0 mg/kg/injection, schedule: Q01DX001 (ip), vehicle: other): 116 % of control
- T/C (dose: 4.0 mg/kg/injection, schedule: Q01DX001 (oral), vehicle: carboxymethylcellulose (CMC)): 90 % of control
- T/C (dose: 4.0 mg/kg/injection, schedule: Q01DX001 (sc), vehicle: carboxymethylcellulose (CMC)): 100 % of control
- T/C (dose: 4.0 mg/kg/injection, schedule: Q01DX009 (ip), vehicle: other): 208 % of control
- T/C (dose: 4.0 mg/kg/injection, schedule: Q## X008 (ip), vehicle: carboxymethylcellulose (CMC)): 155 % of control
- T/C (dose: 4.0 mg/kg/injection, schedule: Q## X024 (ip), vehicle: carboxymethylcellulose (CMC)): 100 % of control
- T/C (dose: 6.0 mg/kg/injection, schedule: Q01DX009 (oral), vehicle: carboxymethylcellulose (CMC)): 90 % of control
- T/C (dose: 8.0 mg/kg/injection, schedule: Q01DX001 (oral), vehicle: carboxymethylcellulose (CMC)): 90 % of control
- T/C (dose: 8.0 mg/kg/injection, schedule: Q01DX001 (sc), vehicle: carboxymethylcellulose (CMC)): 109 % of control
- T/C (dose: 12.0 mg/kg/injection, schedule: Q01DX009 (oral), vehicle: carboxymethylcellulose (CMC)): 100 % of control
- T/C (dose: 16.0 mg/kg/injection, schedule: Q01DX001 (oral), vehicle: carboxymethylcellulose (CMC)): 100 % of control
- T/C (dose: 32.0 mg/kg/injection, schedule: Q01DX001 (oral), vehicle: carboxymethylcellulose (CMC)): 90 % of control
- T/C (dose: 25.0 micrograms/kg/injection, schedule: Q01DX010 (ip), vehicle: saline): 100 % of control
- T/C (dose: 50.0 micrograms/kg/injection, schedule: Q01DX010 (ip), vehicle: saline): 122 % of control
- T/C (dose: 62.5 micrograms/kg/injection, schedule: Q01DX010 (ip), vehicle: saline): 109 % of control
- T/C (dose: 125.0 micrograms/kg/injection, schedule: Q01DX010 (ip), vehicle: saline): 109 % of control
- T/C (dose: 200.0 micrograms/kg/injection, schedule: Q01DX010 (ip), vehicle: saline): 154 % of control
- T/C (dose: 400.0 micrograms/kg/injection, schedule: Q01DX010 (ip), vehicle: saline): 154 % of control
- T/C (dose: 500.0 micrograms/kg/injection, schedule: Q01DX010 (ip), vehicle: saline): 209 % of control
- T/C (dose: 800.0 micrograms/kg/injection, schedule: Q01DX010 (ip), vehicle: saline): 181 % of control
